The values that follow come from ChEMBL document CHEMBL4813944 (Eur J Med Chem, 2021).

The test system of data set [1] is SH-SY5Y. The experiment in a line: Neuroprotective activity against salsolinol-induced neurotoxicity in human SH-SY5Y cells assessed as cell death at 100 uM measured after 24 hrs by PI staining based analysis (reference value: 100%). The format is functional.
Data set [2] concerns SH-SY5Y. The experiment in a line: Neuroprotective activity against salsolinol-induced neurotoxicity in human SH-SY5Y cells assessed as cell viability at 100 uM measured after 24 hrs by calcein-AM staining based fluorescence analysis (reference value: 70.49 +/-0.51%). The format is functional. The following applies: read-out: Activity.
The nature of data set [3]: Inhibition of salsolinol-induced mitochondrial depolarization in human SH-SY5Y cells assessed as mitochondrial membrane potential at 1000 uM measured after 24 hrs by JC-1 staining based flow cytometry (reference value: 45.3 +/-2.09%). The format is functional. On the set-up: scale not given: the % may be the effect or the level left.
Data set [4] has as its system SH-SY5Y. The experiment in a line: Neuroprotective activity against salsolinol-induced neurotoxicity in human SH-SY5Y cells assessed as cell viability at 1000 uM measured after 24 hrs by calcein-AM staining based fluorescence analysis (reference value: 70.49 +/-0.51%). The format is functional. The following applies: read-out: Activity.
Data set [5] concerns SH-SY5Y. Briefly: Inhibition of salsolinol-induced apoptosis in human SH-SY5Y cells assessed as appearance of necrotic cells along with early and late apoptotic cells at 1000 uM measured after 24 hrs by AO/PIstaining based fluorescence microscopy. The class given is functional, cell-based.
The nature of data set [6]: Cytotoxicity against human SH-SY5Y cells assessed as cell viability at 100 uM measured after 24 hrs by calcein-AM staining based fluorescence analysis. The following applies: read-out: Activity.
The subject of data set [7] is SH-SY5Y. The experiment in a line: Inhibition of salsolinol-induced apoptosis in human SH-SY5Y cells assessed as caspase 3/7 activity at 1000 uM incubated for 24 hrs using Ac-DEVD-AMC as substrate by fluorescence analysis (reference value: 100%). The class given is functional. On the set-up: scale not given: the % may be the effect or the level left.
Data set [8] can be described thus: Inhibition of salsolinol-induced mitochondrial depolarization in human SH-SY5Y cells assessed as mitochondrial membrane potential at 100 uM measured after 24 hrs by JC-1 staining based flow cytometry (reference value: 45.3 +/-2.09%). The class given is functional. On the set-up: scale not given: the % may be the effect or the level left.
Data set [9] can be described thus: Cytotoxicity against human SH-SY5Y cells assessed as cell viability at 1000 uM measured after 24 hrs by calcein-AM staining based fluorescence analysis. The following applies: read-out: Activity.
A short description of data set [10]: Inhibition of salsolinol-induced mPTP opening in human SH-SY5Y cells assessed as fold change in fluorescence intensity at 1000 uM measured after 24 hrs by calcein AM/CoCl2 based fluorescence microscopic analysis (reference value: 0.49 +/-0.02). The class given is functional.
Data set [11] in a line: Cytotoxicity against human SH-SY5Y cells assessed as cell viability at 10 uM measured after 24 hrs by calcein-AM staining based fluorescence analysis. The following applies: read-out: Activity.
In data set [12] the test system is SH-SY5Y. Briefly: Neuroprotective activity against salsolinol-induced neurotoxicity in human SH-SY5Y cells assessed as cell death at 1000 uM measured after 24 hrs by PI staining based analysis (reference value: 100%). The format is functional.
The subject of data set [13] is SH-SY5Y. Briefly: Inhibition of Salsolinol-induced oxidative stress in human SH-SY5Y cells assessed as reduction in superoxide radical formation at 1000 uM measured after 24 hrs by DHE staining based fluorescence microscopy. The class given is functional, cell-based.
Data set [14] deals with SH-SY5Y. Briefly: Inhibition of Salsolinol-induced oxidative stress in human SH-SY5Y cells assessed as reduction in superoxide radical formation measured after 24 hrs by DHE staining based fluorescence spectrophotometry. The following applies: dose 10-1000 µM. The format is functional, cell-based.
For data set [15], the system named is SH-SY5Y. Briefly: Inhibition of Salsolinol-induced oxidative stress in human SH-SY5Y cells assessed as superoxide radical formation at 1000 uM measured after 24 hrs by DHE staining based fluorescence spectrophotometry (reference value: 100%). On the set-up: scale not given: the % may be the effect or the level left. The format is functional.
In data set [16] the test system is SH-SY5Y. Briefly: Inhibition of glutamate-induced apoptosis in human SH-SY5Y cells assessed as caspase 3/7 activity at 0.05 uM incubated for 1 hr using Ac-DEVD-AMC as substrate by fluorescence analysis (reference value: 100%). The format is functional. On the set-up: scale not given: the % may be the effect or the level left.
The test system of data set [17] is SH-SY5Y. Briefly: Inhibition of salsolinol-induced apoptosis in human SH-SY5Y cells assessed as caspase 3/7 activity at 0.05 uM incubated for 24 hrs using Ac-DEVD-AMC as substrate by fluorescence analysis (reference value: 100%). The format is functional. On the set-up: scale not given: the % may be the effect or the level left.
Data set [18] relates to SH-SY5Y. The experiment in a line: Inhibition of salsolinol-induced apoptosis in human SH-SY5Y cells assessed as caspase 3/7 activity at 0.5 uM incubated for 24 hrs using Ac-DEVD-AMC as substrate by fluorescence analysis (reference value: 100%). The class given is functional. On the set-up: scale not given: the % may be the effect or the level left.
In data set [19] the test system is SH-SY5Y. The experiment in a line: Inhibition of glutamate-induced apoptosis in human SH-SY5Y cells assessed as caspase 3/7 activity at 0.5 uM incubated for 1 hr using Ac-DEVD-AMC as substrate by fluorescence analysis (reference value: 100%). The format is functional. On the set-up: scale not given: the % may be the effect or the level left.
In data set [20] the test system is SH-SY5Y. The experiment in a line: Inhibition of glutamate-induced mitochondrial depolarization in human SH-SY5Y cells assessed as recovery of mitochondrial membrane potential at 0.1 to 1 uM incubated for 1 hr by JC10 dye based fluorescence analysis. The format is functional, cell-based. Particulars: dose 0.1-1 µM.
The subject of data set [21] is SH-SY5Y. Briefly: Neuroprotective activity against salsolinol-induced neurotoxicity in human SH-SY5Y cells assessed as cell death at 1 uM measured after 24 hrs by PI staining based analysis (reference value: 100%). The class given is functional.
Data set [22] deals with SH-SY5Y. The experiment in a line: Inhibition of salsolinol-induced apoptosis in human SH-SY5Y cells assessed as appearance of necrotic cells at 1 uM measured after 24 hrs by AO/PIstaining based fluorescence microscopy. The class given is functional, cell-based.
For data set [23], the system named is SH-SY5Y. The experiment in a line: Inhibition of Salsolinol-induced oxidative stress in human SH-SY5Y cells assessed as superoxide radical formation at 1 uM measured after 24 hrs by DHE staining based fluorescence spectrophotometry (reference value: 100%). The format is functional. On the set-up: scale not given: the % may be the effect or the level left.
The test system of data set [24] is SH-SY5Y. Briefly: Inhibition of glutamate-induced oxidative stress in human SH-SY5Y cells assessed as reduction in superoxide radical formation at 1 uM measured after 4 hrs by DHE staining based fluorescence microscopy. The class given is functional, cell-based.
In data set [25] the test system is SH-SY5Y. Briefly: Inhibition of salsolinol-induced mitochondrial depolarization in human SH-SY5Y cells assessed as mitochondrial membrane potential at 10 uM measured after 24 hrs by JC-1 staining based flow cytometry (reference value: 45.3 +/-2.09%). The class given is functional.
Data set [26] has as its system SH-SY5Y. Briefly: Inhibition of glutamate-induced apoptosis in human SH-SY5Y cells assessed as reduction in caspase 3/7 activity at 0.1 to 1 uM incubated for 1 hr using Ac-DEVD-AMC as substrate by fluorescence analysis. Particulars: dose 0.1-1 µM. The format is functional.
In data set [27] the test system is SH-SY5Y. Briefly: Neuroprotective activity against salsolinol-induced neurotoxicity in human SH-SY5Y cells assessed as cell death at 0.1 uM measured after 24 hrs by PI staining based analysis (reference value: 100%). The format is functional.
In data set [28] the test system is SH-SY5Y. The experiment in a line: Neuroprotective activity against salsolinol-induced neurotoxicity in human SH-SY5Y cells assessed as cell viability at 0.1 uM measured after 24 hrs by calcein-AM staining based fluorescence analysis (reference value: 70.49 +/-0.51%). The class given is functional. Particulars: read-out: Activity.
The test system of data set [29] is SH-SY5Y. The experiment in a line: Inhibition of glutamate-induced oxidative stress in human SH-SY5Y cells assessed as superoxide radical formation at 0.1 uM measured after 4 hrs by DHE staining based fluorescence spectrophotometry (reference value: 100%). The format is functional. On the set-up: scale not given: the % may be the effect or the level left.
Data set [30] relates to SH-SY5Y. Briefly: Inhibition of glutamate-induced oxidative stress in human SH-SY5Y cells assessed as superoxide radical formation at 1 uM measured after 4 hrs by DHE staining based fluorescence spectrophotometry (reference value: 100%). The format is functional. On the set-up: scale not given: the % may be the effect or the level left.
Data set [31] deals with SH-SY5Y. The experiment in a line: Inhibition of Salsolinol-induced oxidative stress in human SH-SY5Y cells assessed as reduction in superoxide radical formation at 1 uM measured after 24 hrs by DHE staining based fluorescence microscopy. The class given is functional, cell-based.
For data set [32], the system named is SH-SY5Y. Briefly: Neuroprotective activity against salsolinol-induced neurotoxicity in human SH-SY5Y cells assessed as cell viability at 1 uM measured after 24 hrs by calcein-AM staining based fluorescence analysis (reference value: 70.49 +/-0.51%). The class given is functional. The following applies: read-out: Activity.
The subject of data set [33] is SH-SY5Y. The experiment in a line: Inhibition of Salsolinol-induced oxidative stress in human SH-SY5Y cells assessed as superoxide radical formation at 0.1 uM measured after 24 hrs by DHE staining based fluorescence spectrophotometry (reference value: 100%). The class given is functional. On the set-up: scale not given: the % may be the effect or the level left.
Data set [34] deals with SH-SY5Y. The experiment in a line: Inhibition of salsolinol-induced apoptosis in human SH-SY5Y cells assessed as caspase 3/7 activity at 0.1 uM incubated for 24 hrs using Ac-DEVD-AMC as substrate by fluorescence analysis (reference value: 100%). The class given is functional. On the set-up: scale not given: the % may be the effect or the level left.
Data set [35] in a line: Inhibition of salsolinol-induced mPTP opening in human SH-SY5Y cells assessed as fold change in fluorescence intensity at 1 uM measured after 24 hrs by calcein AM/CoCl2 based fluorescence microscopic analysis (reference value: 0.49 +/-0.02). The class given is functional.
Data set [36] in a line: Cytotoxicity against human SH-SY5Y cells assessed as cell viability at 0.1 uM measured after 24 hrs by calcein-AM staining based fluorescence analysis. The following applies: read-out: Activity.
Data set [37] can be described thus: Cytotoxicity against human SH-SY5Y cells assessed as cell viability at 1 uM measured after 24 hrs by calcein-AM staining based fluorescence analysis. Particulars: read-out: Activity.
For data set [38], the system named is SH-SY5Y. The experiment in a line: Inhibition of salsolinol-induced mitochondrial depolarization in human SH-SY5Y cells assessed as recovery of mitochondrial membrane potential at 0.1 uM measured after 24 hrs by JC-1 staining based flow cytometry. The format is functional, cell-based.
Data set [39] has as its system SH-SY5Y. Briefly: Neuroprotective activity against glutamate-induced neurotoxicity in human SH-SY5Y cells assessed as cell death at 1 uM measured after 24 hrs by PI staining based assay (reference value: 100%). The format is functional.
Data set [40] relates to SH-SY5Y. The experiment in a line: Inhibition of salsolinol-induced apoptosis in human SH-SY5Y cells assessed as caspase 3/7 activity at 1 uM incubated for 24 hrs using Ac-DEVD-AMC as substrate by fluorescence analysis (reference value: 100%). On the set-up: scale not given: the % may be the effect or the level left. The class given is functional.

Active and inactive are the calls of the source. No cut-off for these calls is given here.

For `CC(=O)N[C@@H](CS)C(=O)O` [ACETYLCYSTEINE], the Activity in [1] was found to be 72.5%; in [3], 69.7%; in data set [7], 79.3%; in data set [8], 66.4%; in data set [12], 68.2%; in [15], 53.8%. Further, in data set [2], the viability at 100 µM is 82.3%. For the same molecule, the viability at 1000 µM in data set [4] is 89%. Also, the result in data set [5] was Active. For the same molecule, in data set [6], the viability at 24 h, 100 µM is 114%. Besides, in [9], the viability at 24 h, 1000 µM is 120%. Also, the “fold change (FC)” value in [10] is listed as 0.76. Further, in [11], the viability at 24 h, 10 µM was 108%. For the same molecule, the inhibition result in data set [13] is “Active”. In addition, the inhibition result in data set [14] is “Dose-Dependent Effect”.
Take `CC(=O)N[C@@H](CC(=O)O)C(=O)N[C@@H](CCC(=O)O)C(=O)N[C@H](C(=O)N[C@@H](CC(=O)O)C(=O)O)C(C)C`: the Activity came out at 27.8% in data set [16], 36.9% in data set [17], 30.8% in data set [18] and 13.7% in [19].
As to `C=C(C(=O)OCc1c[nH]nn1)[C@@H]1CC[C@]2(COC(C)=O)CC[C@]3(C)[C@H](CC[C@@H]4[C@@]5(C)CC[C@H](OC(C)=O)C(C)(C)[C@@H]5CC[C@]43C)[C@@H]12`, the outcome in [20] and in data set [25] was inactive. For the same molecule, the Activity in [21] came out at 59.3%; in data set [23] it was 81%; in data set [27], 62.3%; in data set [29], 75.7%; in data set [30] it was 72.2%; in data set [33], 83.7%. Further, the Activity stood at 42.2% in data set [34], 85% in data set [39] and 24.3% in data set [40]. Further, the outcome in data set [22] and in data set [38] was Active. In addition, the inhibition result in [24] and in [31] was “Active” in each case. Moreover, the “inhibition (INH)” value in data set [26] is on record as 6%. For the same molecule, the viability at 0.1 µM in data set [28] was 81.4%. The viability at 24 h, 10 µM in [11] was 30.5%. In addition, in data set [32], the viability at 1 µM was 97.9%. The “fold change (FC)” value in [35] was 1.14. The viability at 24 h, 0.1 µM in [36] was 97.4%. Besides, the viability at 24 h, 1 µM in [37] is 119%.
